{"source": "patent US20230123601A1", "about": "“PHARMACEUTICAL COMBINATION OF ANTIVIRAL AGENTS TARGETING HBV AND/OR AN IMMUNE MODULATOR FOR TREATMENT OF HBV” (priority 2019, published 2023)", "tested_on": "HBV", "experiment": "HBV-DNA levels in serum of AAV/HBV mice (qPCR)", "assay_type": "in vivo, C57BL/6 mice", "parameters": "HBV-DNA levels in serum: unit not given here", "from_the_text": "The AAV-HBV mouse model is generated by injecting C57BL/6 mice with recombinant adeno-associated virus harboring a replicable HBV genome (AAV-HBV). The rAAV8-1.3 HBV ayw virus stock was purchased from Beijing FivePlus Molecular Medicine Institute (Beijing, China). The animals (male, aged 4-5 weeks upon arrival) were purchased from SLAC Laboratory Animal Co. Ltd (Shanghai, China), acclimatized in the animal facility for 5-7 days, and then injected with 1×10^11 vector genome of AAV-HBV (diluted in 200 μL of PBS) through the tail vein. Persistence expression of HBV genome can be established after three weeks, with high levels of HBV viral markers including HBV DNA, HBsAg, and HBeAg in mouse serum. With stable HBV viremia and competent immune system of the C57BL/6 mice, the AAV-HBV mouse model was used to evaluate the in vivo anti-HBV efficacy of the compounds. The in-life part of the AAV-HBV study was conducted through contracted service at Covance Pharmaceutical Research and Development (Shanghai) Co. Ltd. (Covance Shanghai) and the post-life analysis using the serum was performed internally at Roche Innovation Center Shanghai (RICS).\nSeven days before compound treatment, blood samples were collected for serum preparation (˜15 μL), and based on HBV DNA, HBsAg levels in serum and body weight, the AAV-HBV infected animals were stratified into the different treatment groups.\nSaline (Group 01) and anti-HBV ASO of CMP ID NO: 15_1 at 1.5 or 7.5 mg/kg were dosed sub subcutaneously once a week during Day 0-49 on Days 0, 7, 14, 21, 28, 35, 42 and 49. TLR7 agonist of CMP ID NO: VI 100 mg/kg was administered by oral gavage once every other day during Day 0-55 (QOD) or once weekly during Day 0-49 on Days 0, 7, 14, 21, 28, 35, 42 and 49 (QW). The animals were weekly bled via retro-orbital sinus for sample collection throughout the study.\nInitially mice serum was diluted by a factor of 10 (1:10) with Phosphate buffered saline (PBS). DNA was extracted using the MagNA Pure 96 (Roche) robot. 50 μl of the diluted serum was mixed in a processing cartridge with 200 ul MagNA Pure 96 external lysis buffer (Roche, Cat. no. 06374913001) and incubated for 10 minutes. DNA was then extracted using the “MagNA Pure 96 DNA and Viral Nucleic Acid Small Volume Kit” (Roche, Cat. no. 06543588001) and the “Viral NA Plasma SV external lysis 2.0” protocol. DNA elution volume was 50 μl.\nQuantification of extracted HBV DNA was performed using a Taqman qPCR machine (ViiA7, life technologies). Each DNA sample was tested in duplicate in the PCR. 5 μl of DNA sample was added to 15 μl of PCR mastermix containing 10 μl TaqMan Gene Expression Master Mix (Applied Biosystems, Cat. no. 4369016), 0.5 μl PrimeTime XL qPCR Primer/Probe (IDT) and 4.5 μl distilled water in a 384 well plate and the PCR was performed using the following settings: UDG Incubation (2 min, 50° C.), Enzyme Activation (10 min, 95° C.) and PCR (40 cycles with 15 sec, 95° for Denaturing and 1 min, 60° C. for annealing and extension). DNA copy numbers were calculated from Ct values based on a HBV plasmid DNA standard curve by the ViiA7 software.\nTo evaluate the combination of the anti-HBV ASO and the TLR7 agonist in an in vivo system, a mouse model of chronic HBV infection was used. In the AAV/HBV mouse model described in the Materials and Method a persistent HBV infection is established resulting in expression of viral markers (HBsAg, HBeAg, HBV DNA) detectable in plasma. The effect on these viral markers upon treatment with the anti-HBV ASO of CMP ID NO: 15_1 (table 2, and FIG. 4) dosed at 1.5 mg/kg or 7.5 mg/kg and the TLR7 agonist of CMP ID NO: VI (table 3) dosed with […] every other day (QOD) or once weekly (QW) in monotherapy or in combination has been evaluated."}
{"smiles": "CC[C@H](OC(C)=O)[C@@H]1C[C@@H](O)[C@H](n2c(=O)sc3cnc(N)nc32)O1", "note": "[CMP ID NO: VI, [(1S)-1-[(2S,4R,5R)-5-(5-amino-2-oxo-thiazolo[4,5-d]pyrimidin-3-yl)-4-hydroxy-tetrahydrofuran-2-yl]propyl] acetate]", "values": [{"measurement": "HBV-DNA levels in serum", "setting": "TLR7 100 mg/kg QOD, D0", "result": "7.69 ± 0.19"}, {"measurement": "HBV-DNA levels in serum", "setting": "TLR7 100 mg/kg QOD, D7", "result": "5.74 ± 0.62"}, {"measurement": "HBV-DNA levels in serum", "setting": "TLR7 100 mg/kg QOD, D14, 100 mg/kg", "result": "5.73 ± 1.2"}, {"measurement": "HBV-DNA levels in serum", "setting": "TLR7 100 mg/kg QOD, D21", "result": "5.55 ± 0.32"}, {"measurement": "HBV-DNA levels in serum", "setting": "TLR7 100 mg/kg QOD, D28", "result": "5.23 ± 1.02"}, {"measurement": "HBV-DNA levels in serum", "setting": "TLR7 100 mg/kg QOD, D35", "result": "4.69 ± 0.71"}, {"measurement": "HBV-DNA levels in serum", "setting": "TLR7 100 mg/kg QOD, D42", "result": "4.72 ± 0.76"}, {"measurement": "HBV-DNA levels in serum", "setting": "TLR7 100 mg/kg QOD, D49, 100 mg/kg", "result": "4.5 ± 0.55"}, {"measurement": "HBV-DNA levels in serum", "setting": "TLR7 100 mg/kg QOD, D56", "result": "4.59 ± 0.65"}, {"measurement": "HBV-DNA levels in serum", "setting": "TLR7 100 mg/kg QOD, D63, 100 mg/kg", "result": "5.3 ± 1.21"}, {"measurement": "HBV-DNA levels in serum", "setting": "TLR7 100 mg/kg QOD, D70", "result": "5.95 ± 1.17"}, {"measurement": "HBV-DNA levels in serum", "setting": "TLR7 100 mg/kg QOD, D77", "result": "6.01 ± 1.17"}, {"measurement": "HBV-DNA levels in serum", "setting": "TLR7 100 mg/kg QOD, D84", "result": "6.26 ± 1.08"}, {"measurement": "HBV-DNA levels in serum", "setting": "TLR7 100 mg/kg QOD, D91", "result": "5.81 ± 1.09"}, {"measurement": "HBV-DNA levels in serum", "setting": "TLR7 100 mg/kg QOD, D98", "result": "6.02 ± 1.17"}, {"measurement": "HBV-DNA levels in serum", "setting": "TLR7 100 mg/kg QOD, D105", "result": "6.23 ± 1.29"}, {"measurement": "HBV-DNA levels in serum", "setting": "TLR7 100 mg/kg QOD, D111", "result": "6.77 ± 0.64"}, {"measurement": "HBV-DNA levels in serum", "setting": "TLR7 100 mg/kg QW, D0, 100 mg/kg", "result": "7.68 ± 0.2"}, {"measurement": "HBV-DNA levels in serum", "setting": "TLR7 100 mg/kg QW, D7", "result": "7.15 ± 0.67"}, {"measurement": "HBV-DNA levels in serum", "setting": "TLR7 100 mg/kg QW, D14", "result": "7.14 ± 0.47"}, {"measurement": "HBV-DNA levels in serum", "setting": "TLR7 100 mg/kg QW, D21", "result": "6.65 ± 0.75"}, {"measurement": "HBV-DNA levels in serum", "setting": "TLR7 100 mg/kg QW, D28, 100 mg/kg", "result": "6.1 ± 1.25"}, {"measurement": "HBV-DNA levels in serum", "setting": "TLR7 100 mg/kg QW, D35", "result": "6.61 ± 0.98"}, {"measurement": "HBV-DNA levels in serum", "setting": "TLR7 100 mg/kg QW, D42, 100 mg/kg", "result": "6.4 ± 0.84"}, {"measurement": "HBV-DNA levels in serum", "setting": "TLR7 100 mg/kg QW, D49", "result": "6.27 ± 0.89"}, {"measurement": "HBV-DNA levels in serum", "setting": "TLR7 100 mg/kg QW, D56", "result": "6.74 ± 0.64"}, {"measurement": "HBV-DNA levels in serum", "setting": "TLR7 100 mg/kg QW, D63, 100 mg/kg", "result": "6.72 ± 0.7"}, {"measurement": "HBV-DNA levels in serum", "setting": "TLR7 100 mg/kg QW, D70, 100 mg/kg", "result": "6.8 ± 0.64"}, {"measurement": "HBV-DNA levels in serum", "setting": "TLR7 100 mg/kg QW, D77", "result": "6.95 ± 0.53"}, {"measurement": "HBV-DNA levels in serum", "setting": "TLR7 100 mg/kg QW, D84", "result": "6.87 ± 0.49"}, {"measurement": "HBV-DNA levels in serum", "setting": "TLR7 100 mg/kg QW, D91", "result": "6.59 ± 0.52"}, {"measurement": "HBV-DNA levels in serum", "setting": "TLR7 100 mg/kg QW, D98, 100 mg/kg", "result": "6.7 ± 0.4"}, {"measurement": "HBV-DNA levels in serum", "setting": "TLR7 100 mg/kg QW, D105", "result": "6.93 ± 0.43"}, {"measurement": "HBV-DNA levels in serum", "setting": "TLR7 100 mg/kg QW, D111", "result": "7.07 ± 0.45"}, {"measurement": "HBV DNA rebound, distance to control group", "setting": "TLR7 agonist QOD or QW monotherapy, follow-up period", "result": "≤ 1", "unit": "log"}, {"measurement": "reduction of HBV-DNA", "setting": "TLR7 agonist alone", "result": "only reached the LLOQ when dosed every other day (QOD)"}, {"measurement": "timing of HBV DNA rebound", "setting": "TLR7 agonist monotherapy", "result": "occurred sooner after the end of treatment than it did in the anti-HBV ASO treated groups"}, {"measurement": "maximal reduction of HBV-DNA", "setting": "TLR7 agonist monotherapy, QW dosing", "result": "around 1.5 log"}]}
